From ChEMBL document CHEMBL3751822, “C1C2-linker substituted 1,5-naphthyridine analogues of oxabicyclooctane-linked NBTIs as broad-spectrum antibacterial agents (part 7)” (Medchemcomm, 2015)

How the values were obtained:
Type in all cases: functional
Staphylococcus aureus [1] = assay: Antibacterial activity against quinolone-resistant Staphylococcus aureus MS5935 by micro-broth dilution method
Staphylococcus aureus [2] = assay: Ratio of MIC for quinolone-resistant Staphylococcus aureus MS5935 to MIC for quinolone-sensitive Staphylococcus aureus MS5935
Staphylococcus aureus [3] = assay: Antibacterial activity against quinolone-sensitive Staphylococcus aureus MS5935 by micro-broth dilution method

In the case of `C[C@H]1COc2c(N3CCN(C)CC3)c(F)cc3c(=O)c(C(=O)O)cn1c23.C[C@H]1COc2c(N3CCN(C)CC3)c(F)cc3c(=O)c(C(=O)O)cn1c23.O` [LEVOFLOXACIN], the MIC (Staphylococcus aureus [1]) is reported as greater than 16 µg/mL, the Ratio (Staphylococcus aureus [2]) is reported as greater than 64 and the MIC (Staphylococcus aureus [3]) is reported as 0.26 µg/mL.
